Source: patent publication US7807439B2, “Staphylococcus aureus-specific detection media and identifying and/or counting method using same” (Biomerieux S.A., priority 2001, dated 2010)

Experiments:
S. intermedius 8407075 = assay: Experiment 7: effect of maltose on α-glucosidase activity, weak inocula; type: cell-based, Staphylococcus intermedius; set-up: key: 0 corresponds to a lack of activity; 0.1 corresponds to the presence of a trace of coloration; 0.5 corresponds to the presence of a very pale coloration; 1 corresponds to the presence of a clear coloration of weak intensity; 1.5 corresponds to the presence of a coloration which is intermediate between colorations 1 and 2; 2 corresponds to the presence of a true coloration of medium intensity; 2.5 corresponds to the presence of a coloration which is intermediate between colorations 2 and 3; 3 corresponds to the presence of an intense coloration; 3.5 corresponds to the presence of a coloration which is intermediate between colorations 3 and 4; 4 corresponds to the presence of a very intense coloration; conditions: strain 6
Description: (§1) The maltose is solubilized in water at a concentration of, for example, 100 g/l, and then a sufficient volume to obtain the final concentrations above is added to the three molten media. The Staphylococcal strains derived from the bioMérieux internal collection were seeded onto each one of the chromogenic media on their own (closely spaced perpendicular streaks over the entire surface of the dish) using a suspension at 0.5 MacFarland diluted to 1/30000. The dishes were incubated at 37° C. for 48 hours. The colonies formed were examined visually after 18, 24 and 48 hours of incubation and the intensity of coloration of the colonies was marked. The coloration was noted and the intensity of these colorations was marked. The reading scale is the same as that used above for tables 2 and 4.

Staphylococcus aureus = assay: Experiment 7: effect of maltose, summary; type: cell-based; conditions: in particular critical strains (3, 4, 5 and 6)
Description: as §1, with “marked.” for “marked. The coloration was noted and the intensity of these colorations was marked. The reading scale is the same as that used above for tables 2 and 4.”

In the case of `OC[C@H]1O[C@H](O[C@H]2[C@H](O)[C@@H](O)C(O)O[C@@H]2CO)[C@H](O)[C@@H](O)[C@@H]1O` (mixture of isomers) [Maltose, maltose], the “Intensity of coloration of the colonies” value (S. intermedius 8407075; 18 h, Maltose 100 mg/l) was 0.3, the “Intensity of coloration of the colonies” value (S. intermedius 8407075; 18 h, Maltose 300 mg/l) was 0.3 and the “Intensity of coloration of the colonies” value (S. intermedius 8407075; 18 h, Maltose 400 mg/l) was 0.3. The “Intensity of coloration of the colonies” value (S. intermedius 8407075; 24 h, Maltose 100 mg/l) was 0.6, the “Intensity of coloration of the colonies” value (S. intermedius 8407075; 24 h, Maltose 300 mg/l) was 0.8 and the “Intensity of coloration of the colonies” value (S. intermedius 8407075; 24 h, Maltose 400 mg/l) was 1. For the same molecule, the “Intensity of coloration of the colonies” value (S. intermedius 8407075; >40 h, Maltose 100 mg/l) was 0.8, the “Intensity of coloration of the colonies” value (S. intermedius 8407075; >40 h, Maltose 300 mg/l) was 1 and the “Intensity of coloration of the colonies” value (S. intermedius 8407075; >40 h, Maltose 400 mg/l) was 1.3. The “effect on α-glucosidase expression” value (Staphylococcus aureus) was “activates the α-glucosidase expression”.
